What was measured:
diabetic pregnancies = settings: experimental models; reduced from 25%; cited from earlier work
yolk sacs = experiment: DNA laddering assay of apoptosis in embryonic yolk sacs after maternal supplementation; format: in vivo, rat; settings: embryos of diabetic mothers with supplemented diet, FIG. 7
Experimental: To determine whether hyperglycemia is associated with programmed cell death in embryos, DNA laddering was examined in yolk sacs of embryos with either diabetic or non-diabetic mothers. Yolk sac tissues were collected from embryos, and DNA was extracted using DNeasy Tissue Kit (Qiagen, Valencia, Calif.) and resolved on 0.5% agarose gel. […] To examine whether supplemented diets affected apoptosis in developing embryos of diabetic dams, DNA fragmentation (an indicator of apoptosis) was analyzed using DNA laddering assays.

embryos of diabetic rats = experiment: Dietary supplementation of pregnant STZ-diabetic and non-diabetic rats; neural tube defects in E12 embryos; format: in vivo, rat; settings: supplemented diet from day 1 of pregnancy, embryos at E12
Experimental: To induce diabetes, 8-week-old Sprague-Dawley female rats are injected with 65 mg/kg of streptozotocin via the tail vein. Blood glucose levels are monitored daily (by tail vein puncture using a lancet) using a Prestige Smart blood glucose meter (Home Diagnostics, Fort Lauderdale, Fla.). Once a level of hyperglycemia indicative of diabetes (>250 mg/dl) is achieved, a sustained-release insulin pellet (Linplant, Linshin, Canada) will be inserted subcutaneously.
When glucose levels are restored to normal (80-150 mg/dl) and are stable for at least three continuous days, matings can be set up with male rats of the same strain. Day zero of pregnancy is established by identifying spermatozoa in vaginal smears. At designated developmental stages, insulin pellets are withdrawn to generate hyperglycemia in the pregnant rats. A group of control rats will continuously receive insulin during the course of the experiment. Glucose levels and maternal weight are continuously monitored during the pregnancy. Since it has already been shown that there is no difference in embryonic development between streptozotocin/insulin-treated and non-streptozotocin-treated animals, the streptozotocin/insulin-treated groups are used as an equivalent of non-diabetic control. At the end of the experiment, rats are euthanized and embryos dissected out of the uterus for examination and analysis. At least four pregnant rats are included in each group, from which 40-60 embryos can be obtained for examination. For each type of study, at least three replicate experiments will be carried out.
To investigate the effects of maternal hyperglycemia on embryonic malformations, the investigators employed a rat model that induces diabetes by streptozotocin (STZ). Subcutaneously implanted insulin pellets maintained euglycemia at the time of mating. On day 4 of pregnancy, the insulin pellets were removed, and the developing embryos were exposed to hyperglycemia during organogenesis (days 9-12). To maintain a euglycemic control, insulin pellets were retained in the body during the entire experimental course. On day 12, both sets of rats were euthanized, embryos were dissected out of the uteri for examination, and each embryo's yolk sac was collected for biochemical and molecular analyses.
After removal from the dams, embryos were examined under a dissecting microscope and assessed for morphological malformations in a number of categories to determine the effects of maternal hyperglycemia. […]
At E12, embryos were dissected out of uteri and evaluated for neural tube defects (NTDs), which were used as a measure of malformation rates.

caspase3 = experiment: Western blot of phosphorylated caspase3 in yolk sac cells; format: in vivo, rat; settings: embryos of diabetic dams with supplementation, FIG. 4A
Excerpt: (§1) Apoptosis is mediated by a program involving a number of factors, including caspase3 and Bax (a member of the Bcl-2 family). Hyperglycemia may stimulate JNK activity, which then activates caspases and leads to apoptosis. Activation of Bax is also a hallmark of ongoing apoptosis. To determine whether caspase and Bax activation are involved in maternal diabetic embryopathy, changes in the levels of phosphorylated caspase3 and Bax in yolk sac cells from embryos with either diabetic or non-diabetic mothers were assessed. Cell lysates were resolved on 12% polyacrylamide gel and blotted on nylon membrane. The blots were probed with antibodies raised against phosphorylated caspase3 or Bax (Santa Cruz Biotechnologies, Santa Cruz, Calif.). Signals were detected using a chemiluminescence detection method and exposed to X-ray film (FIG. 4A). The density of the bands on X-ray film was measured using densitometry (VersaDoc Imaging System, Bio-Rad, Hercules, Calif.) and analyzed with one-dimensional analysis software (Bio-Rad; FIGS. 4B and C). The value of each band was calculated as a percentage of the control, which was set at 100%.

ERK1/2 = experiment: Western blot of phosphorylated ERK1/2 in embryonic yolk sac cells; format: in vivo, rat; settings: diabetic dams with supplemented diet, changed to the levels of non-diabetic rats, FIG. 8
Experimental: (§2) The active forms of ERK and JNK are phosphorylated, so their activation in yolk sac tissues were assessed by Western blot detection of the corresponding phosphoproteins. The levels of phosphorylated Raf-1 which activates ERKs and Akt which is an antiapototic protein were also assessed by western blot. Yolk sac tissues were isolated, protein was extracted and analyzed using Western blotting with antibodies specific for phosphorylated ERK-1 and -2 (p-ERK1/2), JNK-1 and -2 (p-JNK1/2), RAF-1 and Akt (FIG. 6A). […] Levels of phosphorylated ERK1/2, JNK1/2, Raf-1 and Akt in embryonic yolk sac cells were evaluated using Western blot assays.

JNK1/2 = experiment: Western blot of phosphorylated JNK1/2 in embryonic yolk sac cells; format: in vivo, rat; settings: diabetic dams with supplemented diet, changed to the levels of non-diabetic rats, FIG. 8
Experimental: as §2

Bax = experiment: Western blot of phosphorylated Bax in yolk sac cells; format: in vivo, rat; settings: embryos of diabetic dams with supplementation, FIG. 4A
Excerpt: as §1

Row | SMILES | malformation rate in diabetic pregnancies (diabetic pregnancies) | DNA fragmentation (DNA laddering) in yolk sacs (yolk sacs) | NTDs (%) (embryos of diabetic rats; diabetic rats) | NTDs (%) (embryos of diabetic rats; non-diabetic rats) | phosphorylated caspase3 level in yolk sacs (caspase3) | level of activated ERKs (p-ERK1/2) in embryonic yolk sacs (ERK1/2) | level of activated JNKs (p-JNK1/2) in embryonic yolk sacs (JNK1/2) | phosphorylated Bax level in yolk sacs (Bax)
1 | O=C(O)CCCC[C@@H]1CCSS1 (racemic) [lipoic acid] | 10% |  |  |  |  |  |  | 
2 | CCCCC/C=C\C/C=C\C/C=C\C/C=C\CCCC(=O)O [arachidonic acid] |  | DNA fragmentation was eliminated | 7.6% | 4.1% | reversal of increased caspase3 and Bax levels | altered embryo levels of activated ERKs and JNKs | altered embryo levels of activated ERKs and JNKs | reversal of increased caspase3 and Bax levels
3 | Cc1c(C)c2c(c(C)c1O)CC[C@@](C)(CCC[C@H](C)CCC[C@H](C)CCCC(C)C)O2 [vitamin E, α-tocopherol] |  | DNA fragmentation was eliminated | 6.9% | 5.0% | reversal of increased caspase3 and Bax levels | altered embryo levels of activated ERKs and JNKs | altered embryo levels of activated ERKs and JNKs | reversal of increased caspase3 and Bax levels
